The values below come from article PMC4423596 (Angewandte Chemie (International ed. in English), 2015).

In one assay the test system is MLL-KIX PPI site. Particulars: cited from earlier work.
The target in assay [1] is T1, CBP/p300 KIX domain (Mus musculus, UniProt P45481). Kind of assay: PrOF NMR chemical shift perturbation at fixed ligand concentration. The format is binding. Particulars: 3FY-labeled KIX; 833 µM to 5 mM small molecule.
In assay [2] the target is T1, CBP/p300 KIX domain. The assay can be described thus: PrOF NMR ligand titration. It is filed as binding.

T1 sequence (P45481 586-665): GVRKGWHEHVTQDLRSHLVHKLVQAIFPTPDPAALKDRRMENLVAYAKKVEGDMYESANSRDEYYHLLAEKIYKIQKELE

For the compound `CCCCCc1c2c(cc(O)c1C(=O)O)OC(=O)c1c(cc(OC)cc1C(=O)CCCC)O2` [lobaric acid], the IC50 (usually the concentration at which inhibition is half-maximal) in the assay with MLL-KIX PPI site is 17 µM.

Turning to `CC(C)Cc1ccc(C(C)C(=O)O)cc1` (stereo not drawn) [ibuprofen], on CBP/p300 KIX domain [1], the “chemical shift perturbation (PrOF NMR), in words” value is given as “significant chemical shift perturbations”.

As to `O=C(Nc1ccc(Cl)cc1)c1cc2ccccc2cc1OP(=O)(O)O` [KG-501, Naphthol AS-E phosphate], the “chemical shift perturbation (PrOF NMR), in words” value on CBP/p300 KIX domain [1] is “identified a binding interaction”.

As to `CC(C(=O)O)c1ccc(-c2ccccc2)c(F)c1` (stereo not drawn) [Flurbiprofen, flurbiprofen], at CBP/p300 KIX domain [2], the affinity, expressed as Kd, was 5900 ± 600 µM. Besides, the “Ligand Efficiency” value at CBP/p300 KIX domain [2] (calculated from the PrOF Kd) is recorded as 0.17 kcal mol^−1 NHA^−1.

As for `CCCc1cc(OC)cc(O)c1C(=O)Oc1c(OC)cc(CCC)c(C(=O)O)c1O` [sekikaic acid], the concentration for half-maximal inhibition (IC50) with MLL-KIX PPI site is 34 µM.
